From patent publication US11384060B2, “Amide compounds and use thereof” (ALPHALA CO., LTD., priority 2017, dated 2022) come the findings set out here.

Assay [1] has as its target T1, glucagon receptor (GCGR) overexpressed CHO-K1 cells or human primary hepatocytes (Homo sapiens, UniProt P47871).
T1 construct: expressed in transfected cells; host or cells: GCGR overexpressed CHO-K1 cells or human primary hepatocytes (endogenous receptor)
The assay can be described thus: Glucagon cAMP inhibition assay (Cisbio cAMP Dynamic 2 HTRF). The assay is classed as cell-based. The conditions noted are these: inhibition of glucagon (EC50 concentration) induced cAMP production. On the procedure:
Glucagon cAMP Inhibition Assay
Downstream secondary messenger cAMP induced by glucagon was detected by Cisbio cAMP Dynamic 2 kit. Testing compounds were each prepared as a dimethyl sulfoxide (DMSO) solution at the concentration of 10 mM. To evaluate the potency of compounds in inhibiting the cAMP production, glucagon receptor (GCGR) overexpressed CHO-K1 cells or human primary hepatocytes were treated with compounds with a serial dilution. The cells were re-suspended in Hank's Balanced Salt solution (HBSS) contained 0.1% (w/v) bovine serum albumin and 800 nM 3-isobutyl-1-methylxanthine (IBMX) and seeded into low volume, 384 wells white plate. The diluted compounds were then added into the plate for 30 minutes pre-incubation where the final DMSO concentration was 1%. The cells were stimulated with glucagon at the concentration equaled to EC50 (an indicium of the concentration of a drug that gives half-maximal response) for 30 minutes at room temperature. After incubation, lysis buffer contain cAMP antibody and fluorescence acceptor were added into each well for additional 60 minutes incubation. Results were recorded by Molecular Devices SpectraMax Paradigm with the HTRF Detection Cartridges and the IC50 value of each compound in inhibiting the cAMP production was calculated with non-linear regression based on the amount of cAMP production.
In general terms: In TR-FRET formats the signal depends on donor and acceptor labels being close together.

Another assay has as its target T2, glucagon receptor (GCGR) (Homo sapiens, UniProt P47871).
T2 construct: expressed in transfected cells; host or cells: CHO-K1 cells overexpressing GCGR (membrane fractions)
The assay is described as follows: I125-glucagon binding assay (competition, GCGR membrane fractions). On the procedure:
I^125-Glucagon Binding Assay
The binding affinity of each compound was evaluated by a competition assay with I^125-glucagon. GCGR membrane fractions were obtained from GCGR overexpressed CHO-K1 cells as a stock of 1 mg/ml concentration. To evaluate the IC50 of compounds binding to GCGR, GCGR membrane fractions were treated with compounds with a serial dilution. The membrane fractions were diluted to 7.5 microgram per well in 70 microliter assay buffer contained 50 mM Tris pH 7.4 and 0.5% (w/v) bovine serum albumin and added into 96 wells plate. The membrane fractions were then mixed with 10 microliter diluted compounds. After 5 minutes pre-incubation, 20 microliter I^125 labeled glucagon (Perkin Elmer) was added into each well at the final concentration of 0.0625 nM. The assay mixtures were incubated at 25° C. for 30 minutes and then transferred onto the Millipore MultiScreen GF/B Plate coated with 0.5% (w/v) Polyethyleneimine. The filter plate was washed with wash buffer contained 50 mM Tris pH 7.4 for 2 times, 300 microliter each time. The residual isotope was detected by Hidex CHAMELEON V micro-beta counter and the IC50 value of each compound binding to GCGR was calculated with non-linear regression.

[2] abbreviates: competition with I125-glucagon 0.0625 nM, membrane fractions of GCGR overexpressed CHO-K1 cells.

T1 sequence (P47871 26-477): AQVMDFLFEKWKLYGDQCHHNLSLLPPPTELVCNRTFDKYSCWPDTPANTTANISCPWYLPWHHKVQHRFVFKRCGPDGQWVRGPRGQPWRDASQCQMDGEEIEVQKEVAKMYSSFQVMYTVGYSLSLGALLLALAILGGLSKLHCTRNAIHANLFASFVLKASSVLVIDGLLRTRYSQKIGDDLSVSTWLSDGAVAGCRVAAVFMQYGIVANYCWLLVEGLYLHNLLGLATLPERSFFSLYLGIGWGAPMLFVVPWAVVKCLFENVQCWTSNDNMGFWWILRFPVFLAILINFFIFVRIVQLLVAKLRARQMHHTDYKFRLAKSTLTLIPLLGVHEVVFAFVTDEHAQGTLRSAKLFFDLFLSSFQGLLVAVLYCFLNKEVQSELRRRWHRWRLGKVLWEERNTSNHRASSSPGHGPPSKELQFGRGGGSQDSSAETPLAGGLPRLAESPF
T2 sequence (P47871 26-477): as above

Consider `CC(C)(C)[C@@H](COc1ccc(-c2ccc(Cl)cc2Cl)cc1)Nc1ccc(C(=O)NCCC(=O)O)cc1` [Compound 1-36, (S)-3-(4-((1-((2′,4′-dichloro-[1,1′-biphenyl]-4-yl)oxy)-3,3-dimethylbutan-2-yl)amino)benzamido)propanoic Acid], for which the “IC50 cAMP” value in assay [1] was 243 nM. The molecule also showed an IC50 at glucagon receptor (GCGR) (setting [2]) of 0.141 µM.

Turning to `CC(C)[C@@H](COc1ccc(-c2ccc(N(C)C)cc2Cl)cc1)Nc1ccc(C(=O)NCCC(=O)O)cc1` [Compound 1-37, (S)-3-(4-((1-((2′-chloro-4′-(dimethylamino)-[1,1′-biphenyl]-4-yl)oxy)-3-methylbutan-2-yl)amino)benzamido)propanoic Acid], the “IC50 cAMP” value in assay [1] is listed as 376 nM. For the same molecule, the concentration for half-maximal inhibition (IC50) on glucagon receptor (GCGR) (setting [2]) was 0.372 µM.

Turning to `CC[C@H](C)[C@@H](COc1ccc(-c2ccc(OC)cc2Cl)cc1)Nc1ccc(C(=O)NCCC(=O)O)cc1` [Compound 1-38, 3-(4-(((2S,3S)-1-((2′-chloro-4′-methoxy-[1,1′-biphenyl]-4-yl)oxy)-3-methylpentan-2-yl)amino)benzamido)propanoic Acid], in assay [1], the “IC50 cAMP” value is given as 203 nM. This molecule came in with a half-maximal inhibitory concentration (IC50) on glucagon receptor (GCGR) (setting [2]) of 0.172 µM.

Consider `CC(C)[C@@H](COc1ccc(-c2cn3ccccc3n2)cc1)Nc1ccc(C(=O)NCCC(=O)O)cc1` [Compound 1-39, (S)-3-(4-((1-(4-(imidazo[1,2-a]pyridin-2-yl)phenoxy)-3-methylbutan-2-yl)amino)benzamido)propanoic Acid], for which, in assay [1], the “IC50 cAMP” value came to 17895 nM. Further, the half-inhibitory concentration (IC50) at glucagon receptor (GCGR) (setting [2]) is 3.81 µM.

Take `CC(C)(C)[C@@H](COc1ccc(-c2cc3ccccc3o2)cc1)Nc1ccc(C(=O)NCCC(=O)O)cc1` [Compound 1-40, (S)-3-(4-((1-(4-(benzofuran-2-yl)phenoxy)-3,3-dimethylbutan-2-yl)amino)benzamido)propanoic Acid]: in assay [1], the “IC50 cAMP” value is given as 235.3 nM. At glucagon receptor (GCGR) (setting [2]), the IC50 was found to be 0.195 µM.

On to `CC(C)[C@@H](COc1ccc(-c2cc3ncccc3o2)cc1)Nc1ccc(C(=O)NCCC(=O)O)cc1` [Compound 1-41, (S)-3-(4-((1-(4-(furo[3,2-b]pyridin-2-yl)phenoxy)-3-methylbutan-2-yl)amino)benzamido)propanoic Acid], for which the “IC50 cAMP” value in assay [1] is reported as 1403 nM. The IC50 on glucagon receptor (GCGR) (setting [2]) was found to be 0.227 µM.

As to `CC(C)(C)[C@@H](COc1ccc(-c2ccc(C(F)(F)F)cc2Cl)cc1)Nc1ccc(C(=O)NCCC(=O)O)cc1` [Compound 1-42, (S)-3-(4-((1-((2′-chloro-4′-(trifluoromethyl)-[1,1′-biphenyl]-4-yl)oxy)-3,3-dimethylbutan-2-yl)amino)benzamido)propanoic aid], the “IC50 cAMP” value in assay [1] is 298 nM. For the same molecule, at glucagon receptor (GCGR) (setting [2]), the IC50 was found to be 0.234 µM.

For `CC(C)[C@@H](COc1ccc(-c2nnc(C(F)(F)F)o2)cc1)Nc1ccc(C(=O)NCCC(=O)O)cc1` [Compound 1-43, 3-(4-((3-methyl-1-(4-(5-(trifluoromethyl)-1,3,4-oxadiazol-2-yl)phenoxy)butan-2-yl)amino)benzamido)propanoic Acid], the “IC50 cAMP” value in assay [1] is recorded as greater than 30000 nM. On glucagon receptor (GCGR) (setting [2]), this molecule had an IC50 of 0.583 µM.

With `CCC(C)[C@@H](COc1ccc(-c2nnc(C(F)(F)F)o2)cc1)Nc1ccc(C(=O)NCCC(=O)O)cc1` (stereo partly drawn) [Compound 1-44, 3-(4-((3-methyl-1-(4-(5-(trifluoromethyl)-1,3,4-oxadiazol-2-yl)phenoxy)pentan-2-yl)amino)benzamido)propanoic Acid], the “IC50 cAMP” value in assay [1] is recorded as 10000 nM. This molecule had an IC50 at glucagon receptor (GCGR) (setting [2]) of 0.388 µM.

As for `CC[C@H](C)[C@@H](COc1ccc(-c2nnc(C(C)(C)C)o2)cc1)Nc1ccc(C(=O)NCCC(=O)O)cc1` [Compound 1-45, 3-(4-(((2S,3S)-1-(4-(5-(tert-butyl)-1,3,4-oxadiazol-2-yl)phenoxy)-3-methylpentan-2-yl)amino)benzamido)propanoic Acid], the “IC50 cAMP” value in assay [1] was 11981 nM. Moreover, the 50% inhibitory concentration (IC50) at glucagon receptor (GCGR) (setting [2]) was 1.52 µM.

On to `CC[C@H](C)[C@@H](COc1ccc(-c2nnc(-c3ccccc3)o2)cc1)Nc1ccc(C(=O)NCCC(=O)O)cc1` [Compound 1-46, 3-(4-(((2S,3S)-3-methyl-1-(4-(5-phenyl-1,3,4-oxadiazol-2-yl)phenoxy)pentan-2-yl)amino)benzamido)propanoic Acid], for which the “IC50 cAMP” value in assay [1] is listed as 5441 nM. In addition, the IC50 at glucagon receptor (GCGR) (setting [2]) turned out to be 0.601 µM.

As to `CCOC(=O)CCNC(=O)c1ccc(N[C@H](COc2ccc(-c3nc4ccccc4o3)cc2)C(C)C)cc1` [Compound 1-47, Ethyl (S)-3-(4-((1-(4-(benzo[d]oxazol-2-yl)phenoxy)-3-methylbutan-2-yl)amino)benzamido)propanoate], in assay [1], the “IC50 cAMP” value is on record as 170 nM. The same molecule returned a half-inhibitory concentration (IC50) on glucagon receptor (GCGR) (setting [2]) greater than 30 µM. Further, the inhibition at 30 µM on glucagon receptor (GCGR) (compound at the concentration of 30 μM, read-out: percentage of inhibition (binding)) was determined as 56%.

Consider `CC(C)[C@@H](COc1ccc(-c2nc3ccccc3o2)cc1)Nc1ccc(C(=O)NCCC(=O)O)cc1` [Compound 1-48, (S)-3-(4-((1-(4-(benzo[d]oxazol-2-yl)phenoxy)-3-methylbutan-2-yl)amino)benzamido)propanoic Acid], for which, in assay [1], the “IC50 cAMP” value is reported as 546 nM. This molecule showed a half-inhibitory concentration (IC50) on glucagon receptor (GCGR) (setting [2]) of 0.138 µM.

As for `CCCC[C@@H](COc1ccc(-c2nnc(C(C)(C)C)o2)cc1)Nc1ccc(C(=O)NCCC(=O)O)cc1` [Compound 1-49, (S)-3-(4-((1-(4-(5-(tert-butyl)-1,3,4-oxadiazol-2-yl)phenoxy)hexan-2-yl)amino)benzamido)propanoic Acid], in assay [1], the “IC50 cAMP” value was found to be 7065 nM. In addition, the IC50 on glucagon receptor (GCGR) (setting [2]) was 7.2 µM.

As to `CCCC[C@@H](COc1ccc(-c2nnc(-c3ccccc3)o2)cc1)Nc1ccc(C(=O)NCCC(=O)O)cc1` [Compound 1-50, (S)-3-(4-((1-(4-(5-phenyl-1,3,4-oxadiazol-2-yl)phenoxy)hexan-2-yl)amino)benzamido)propanoic Acid], in assay [1], the “IC50 cAMP” value is given as 1622 nM. This molecule also displayed a concentration for half-maximal inhibition (IC50) at glucagon receptor (GCGR) (setting [2]) of 0.715 µM.

For the molecule `CCOC(=O)CCNC(=O)c1ccc(N[C@@H](COc2ccc(-c3nc4ccccc4s3)cc2)C(C)C)cc1` [Compound 1-51, Ethyl (R)-3-(4-((1-(4-(benzo[d]thiazol-2-yl)phenoxy)-3-methylbutan-2-yl)amino)benzamido)propanoate], in assay [1], the “IC50 cAMP” value is reported as 197 nM. The molecule also came in with a concentration for half-maximal inhibition (IC50) at glucagon receptor (GCGR) (cell prints its own unit uM under a nM head) greater than 30 µM.

`CC(C)[C@H](COc1ccc(-c2nc3ccccc3s2)cc1)Nc1ccc(C(=O)NCCC(=O)O)cc1` [Compound 1-52, (R)-3-(4-((1-(4-(benzo[d]thiazol-2-yl)phenoxy)-3-methylbutan-2-yl)amino)benzamido)propanoic Acid]: the “IC50 cAMP” value in assay [1] came out at 377 nM. Also, at glucagon receptor (GCGR) (setting [2]), the IC50 is 0.089 µM.

Take `CCOC(=O)CCNC(=O)c1ccc(N[C@@H](COc2ccc(-c3nc4ccccc4o3)cc2)C(C)C)cc1` [Compound 1-53]: the “IC50 cAMP” value in assay [1] turned out to be 90 nM. On glucagon receptor (GCGR) (setting [2]), this molecule displayed a concentration for half-maximal inhibition (IC50) of 24.5 µM.

Turning to `CC(C)[C@H](COc1ccc(-c2nc3ccccc3o2)cc1)Nc1ccc(C(=O)NCCC(=O)O)cc1` [Compound 1-54, (R)-3-(4-((1-(4-(benzo[d]oxazol-2-yl)phenoxy)-3-methylbutan-2-yl)amino)benzamido)propanoic Acid], the “IC50 cAMP” value in assay [1] turned out to be 213 nM. The molecule also came in with a half-inhibitory concentration (IC50) on glucagon receptor (GCGR) (setting [2]) of 0.095 µM.

As to `Cc1cc(OC[C@@H](Cc2ccccc2)Nc2ccc(C(=O)NCCC(=O)O)cc2)cc(C)c1-c1ccc(C(F)(F)F)cc1` [Compound 2-1, (R)-3-(4-((1-((2,6-dimethyl-4′-(trifluoromethyl)-[1,1′-biphenyl]-4-yl)oxy)-3-phenylpropan-2-yl)amino)benzamido)propanoic Acid], the “IC50 cAMP” value in assay [1] came to 322.9 nM. The molecule also had an IC50 at glucagon receptor (GCGR) (setting [2]) of 0.266 µM.

On to `Cc1cc(OC[C@@H](Cc2ccccc2)Nc2ccc(C(=O)NCCC(=O)O)cc2)cc(C)c1-c1ccc(OC(F)(F)F)cc1` [Compound 2-2], for which the “IC50 cAMP” value in assay [1] was 474.8 nM. In addition, the IC50 at glucagon receptor (GCGR) (setting [2]) came to 0.378 µM.

As to `Cc1cc(OC[C@H](CC(C)C)Nc2ccc(C(=O)NCCC(=O)O)cc2)cc(C)c1-c1ccc(OC(F)(F)F)cc1` [Compound 2-3, (S)-3-(4-((1-((2,6-dimethyl-4′-(trifluoromethoxy)-[1,1′-biphenyl]-4-yl)oxy)-4-methylpentan-2-yl)amino)benzamido)propanoic Acid], the “IC50 cAMP” value in assay [1] was determined as 493 nM. On glucagon receptor (GCGR) (setting [2]), this molecule registered an IC50 of 0.465 µM.

The IC50 is the midpoint of a concentration-inhibition curve. What is called inhibition is the share of the control response that was lost under treatment.
